Tests used:
[1] = target: Nef:Hck-YEEI complex (Homo sapiens, UniProt P08631); conditions: Z'-Lyte dose-response, FIG. 7
[2] = tested on: U87MG cells; conditions: human, 96 h, 30 μM
Procedure: (§1) Lead compounds from the yeast screen were evaluated for activity in a Nef-dependent HIV replication assay. For these experiments, U87MG astroglioma cells engineered to express the HIV-1 co-receptors CD4 and CXCR4 were employed. Replication of HIV-1 NL4-3 is dependent upon an intact viral nef gene in these cells, making this system suitable to evaluate leads from the Nef-directed screen. U87MG cells were infected with HIV-1 in the presence of the top five compounds identified in the yeast screen, and HIV replication was monitored as p24 release into the culture supernatant 4 days later, as known in the art. As known in the art, “p24” refers to a constituent protein of the capsid of HIV-1.
(§2) The data of Table 1 are presented as percent p24 release relative to control in the absence of compound. […] Data are expressed as percent viable cells relative to untreated control culture.

[3] = tested on: HIV-1 strain NL4-3; experiment: microbe, parasite or virus in culture; type: cell-based
Procedure: as §1, §2
It is understood that “strongest” and like terms in the context of inhibitors identified in a library screen refer to compounds that inhibit at the lowest concentrations. For these experiments, the U87MG astroglioma cell line was used as a model system. […] U87MG cells were infected with HIV-1 strain NL4-3 as well as an isogenic variant that fails to express Nef (ΔNef), over a wide range of viral titers and in the presence of each compound at 5 μM. Viral replication was assessed as HIV p24 antigen release into the culture supernatant 4 and/or 5 days later. Methods for the assay of p24 in culture supernatant are well known in the art and include, for example without limitation, immunochemical methods.

[4] = target: T1, Hck alone (Homo sapiens, UniProt P08631); experiment: In vitro kinase assay of Hck alone (Z'-LYTE, peptide substrate); type: biochemical; conditions: Z'-Lyte dose-response, FIG. 7
T1 construct: made in house; host or cells: Sf9 insect cells
T1 sequence (P08631 with tags, fused parts or gaps isoform P08631-3): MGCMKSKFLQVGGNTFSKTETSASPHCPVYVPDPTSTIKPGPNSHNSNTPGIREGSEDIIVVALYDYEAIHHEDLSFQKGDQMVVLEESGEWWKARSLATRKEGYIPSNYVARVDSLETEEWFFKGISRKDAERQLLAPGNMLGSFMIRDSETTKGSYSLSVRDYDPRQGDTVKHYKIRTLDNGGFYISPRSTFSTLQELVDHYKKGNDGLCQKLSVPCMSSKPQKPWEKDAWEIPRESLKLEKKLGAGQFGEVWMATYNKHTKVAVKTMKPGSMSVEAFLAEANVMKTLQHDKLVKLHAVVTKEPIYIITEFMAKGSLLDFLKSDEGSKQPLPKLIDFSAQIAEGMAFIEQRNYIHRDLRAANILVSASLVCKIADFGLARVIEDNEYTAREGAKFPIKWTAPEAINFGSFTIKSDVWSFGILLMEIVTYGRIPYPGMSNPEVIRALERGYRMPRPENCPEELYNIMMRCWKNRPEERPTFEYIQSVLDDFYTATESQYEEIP

Sequence of Nef:Hck-YEEI complex (P08631 with tags, fused parts or gaps isoform P08631-3, other chains not shown): as the sequence (P08631 with tags, fused parts or gaps isoform P08631-3) above

Nc1ncnc2oc(-c3ccccc3)c(-c3ccccc3)c12 [IIIi]
Inhibition of Nef:Hck complex [1]: virtually inactive | Cytotoxicity, Viable cell % control [2]: 94 % control | activity at 5 µM ([3]; Human immunodeficiency virus 1, NL43, U-87 MG, 96 h, read-out: HIV p24% Control @ day 4): 72% | Anti-retroviral activity ([3]; data not shown): very weak anti-retroviral activity | Inhibition of Hck alone [4]: virtually inactive

Source: US8541415B2 (University of Pittsburgh—of the Commonwealth System of …, priority 2008, dated 2013)
